{"source": "patent US20040116385A1", "about": "“Treating and preventing viral infections with porphyrin-based compounds” (priority 2002, published 2004)", "key": {"[1]": {"test_system": "supercoiled DNA substrate φX174", "test": "Supercoiled DNA nicking assay (DNA photodamage)", "assay_type": "biochemical", "details": "for Form II (nicked) DNA produced in the dark: samples kept in the dark; for phosphodiester breaks in supercoiled DNA, light-exposed versus dark: yellow light 100 W bulb, 30 cm, 30 minutes", "description": "In the first test to determine the ability of a porphyrin to induce DNA photodamage, we used a supercoiled DNA substrate that migrates rapidly as a single band in agarose gels, but migrates much more slowly if the DNA sustains as little as a single phosphodiester break or nick. Using this technique, we examined the ability of porphyrins 16, 31 and 33 to nick the supercoiled DNA substrate φX174. The porphyrin—DNA mixtures were shielded from light until just prior to the nicking assay, at which time half of each sample remained in the dark, while the other half was exposed to yellow light from a 100 W bulb at a distance of 30 cm for 30 minutes, at room temperature. The samples were then incubated for 30 min at room temperature in the dark, and the products of the reaction were then electrophoresed on a 1% agarose gel and stained."}, "HIV-1": {"test_system": "HIV-1", "details": "preliminary experiments"}, "[2]": {"test_system": "V79 hamster fibroblast cells", "source_text": "We have also determined the cytotoxicity of porphyrins 4, 16, 18, and 31 in V79 hamster fibroblast cells using a clonogenic assay."}, "HIV-1 strain IIIB": {"test_system": "HIV-1 strain IIIB", "test": "In vitro virucidal activity against HIV-1 strain IIIB (assay of A. Vzorov et al. 2002)", "assay_type": "cell-based", "details": "0% = no infective particles remained", "description": "(§1) Porphyrins 16, 31, and 33 have been assayed for in vitro virucidal activity against HIV-1 using the assay of A. Vzorov et al. (2002) (full citation below). The assay was conducted on two different strains of HIV-1, strain IIIB, and strain 89.6. The figures in the table denote the percentage of viral particles that were still infective following treatment."}, "[3]": {"test_system": "human leukemia K562 cells", "test": "Alkaline Comet assay", "assay_type": "cell-based", "details": "yellow light 100 W bulb 5 minutes, versus dark and light-only controls", "description": "The second test, the alkaline Comet assay, is a sensitive technique for determining the presence of single- and double-strand breaks and other DNA lesions such as baseless sites. Human K562 cells were incubated with porphyrins 16, 31, and 33, and were then either exposed to a source of yellow light from a 100 W bulb for 5 minutes at room temperature or kept in the dark. The cells were then immobilized on agarose slides, lysed, exposed to alkaline buffer, electrophoresed, and stained for visualization."}, "HIV-1 strain 89.6": {"test_system": "HIV-1 strain 89.6", "test": "In vitro virucidal activity against HIV-1 strain 89.6 (assay of A. Vzorov et al. 2002)", "assay_type": "cell-based", "details": "0% = no infective particles remained", "description": "as §1"}, "[4]": {"details": "mouse, in vivo"}, "[5]": {"test_system": "9L, U-373MG and B16 cells", "test": "Concentration-dependent cellular uptake", "assay_type": "cell-based", "details": "cells exposed to 1, 5, and 10 μM for 24 hours", "description": "The concentration-dependent uptake of compounds 4, 6, 10, and 12 was investigated in cells exposed to 1, 5, and 10 μM concentrations of the porphyrins for 24 hours. The concentration of intracellular-bound porphyrin was determined by chemical extraction of washed cell monolayers, followed by spectrophotometric or ICP-MS determinations, or both. The uptake values for 9L and U-373MG cells were very similar, and exceeded that for B16 cells. The porphyrin accumulation was invariably observed to increase with increasing concentration of the compound."}, "[6]": {"test_system": "Human glioblastoma U373 MG cells", "test": "Dark cytotoxicity assay, U-373 MG cells", "assay_type": "cell-based", "details": "24 hour exposure, read-out: IC50 (dark toxicity)", "description": "(§2) Human glioblastoma U373 MG, hamster V79 fibroblast, and mouse melanoma B16 cells were obtained from the American Type Culture Collection. Rat gliosarcoma cells were kindly provided by the University of California at San Francisco Brain Tumor Research Group. All cells were maintained in log phase monolayer cultures with RPMI 1640 supplemented with 10% fetal bovine serum and 2 mM glutamine.\n(§3) Cells were seeded in 96-well culture plates, and were allowed to settle and attach for 24-48 hours. Triplicate wells were then exposed to twofold serial dilutions of test compounds at concentrations up to 250 μM. Compounds 4, 6, 10, and 12 in crystalline form were carefully weighed and dissolved in 100% DMSO to prepare stock solutions. Subsequent dilutions were performed directly in the culture medium just before the medium was administered to cells. After short-term (2 hour) or long-term (24 hour) exposure, cells were washed, and the wells were refilled with fresh culture medium. For dark toxicity trials, cells were allowed to proliferate for an additional 48-72 hours. For phototoxicity trials, washed cells were irradiated for 10 minutes with broad spectrum (600-700 nm) red light, and were then returned to an incubator for 48-72 hours."}, "Rat gliosarcoma 9L cells": {"test_system": "Rat gliosarcoma 9L cells", "test": "Dark cytotoxicity assay, 9L cells", "assay_type": "cell-based", "details": "24 hour exposure, read-out: IC50 (dark toxicity)", "description": "as §2, §3"}, "[7]": {"test_system": "9L, U-373 MG and B16 cells", "test": "Phototoxicity assay (red light irradiation)", "assay_type": "cell-based", "details": "irradiation with broad spectrum (600-700 nm) red light 10 minutes", "description": "as §2, §3"}}, "data": [{"substance": "5,15-bis[bis-3,5-(1-methyl-nido-carboranyl)methylphenyl]porphyrin tetrapotassium salt [Compound 31]", "values": [{"measurement": "Form II (nicked) DNA produced in the dark", "setting": "[1]", "result": "little Form II DNA"}, {"measurement": "phosphodiester breaks in supercoiled DNA, light-exposed versus dark", "setting": "[1]", "result": "significantly more effective"}, {"measurement": "activity against HIV-1 in vitro", "setting": "HIV-1", "result": "high levels of activity"}, {"measurement": "CS50", "setting": "[2]", "result": "> 300", "unit": "µM"}, {"measurement": "percentage of viral particles that were still infective following treatment", "setting": "HIV-1 strain IIIB", "result": 9, "unit": "%"}, {"measurement": "DNA damage (Comet tail) after light exposure", "setting": "[3]", "result": "light-activated DNA damage"}, {"measurement": "percentage of viral particles that were still infective following treatment", "setting": "HIV-1 strain 89.6", "result": 2, "unit": "%"}, {"measurement": "maximum tolerated dose", "setting": "[4]", "result": "exceeded 300 mg per kg of body weight"}]}, {"substance": "Zn(II)-5,15-bis[bis-3,5-(1-methyl-nido-carboranyl)methylphenyl]porphyrin tetrapotassium salt [Compound 33]", "values": [{"measurement": "Form II (nicked) DNA produced in the dark", "setting": "[1]", "result": "little Form II DNA"}, {"measurement": "phosphodiester breaks in supercoiled DNA, light-exposed versus dark", "setting": "[1]", "result": "significantly more effective"}, {"measurement": "activity against HIV-1 in vitro", "setting": "HIV-1", "result": "high levels of activity"}, {"measurement": "percentage of viral particles that were still infective following treatment", "setting": "HIV-1 strain IIIB", "result": 0, "unit": "%"}, {"measurement": "DNA damage (Comet tail) after light exposure", "setting": "[3]", "result": "light-activated DNA damage"}, {"measurement": "percentage of viral particles that were still infective following treatment", "setting": "HIV-1 strain 89.6", "result": 4, "unit": "%"}, {"measurement": "maximum tolerated dose", "setting": "[4]", "result": "exceeded 300 mg per kg of body weight"}]}, {"substance": "Zn(II)-meso-tetra[4-(1-methyl-nido-carboranyl)methylphenyl]porphyrin tetrapotassium salt [Compound 6]", "values": [{"measurement": "maximum tolerated dose", "setting": "[4]", "result": "exceeded 300 mg per kg of body weight"}]}, {"substance": "Zn(II)-meso-tetra[4-(nido-carboranyl)phenyl]porphyrin tetrapotassium salt [Compound 18]", "values": [{"measurement": "CS50", "setting": "[2]", "result": "> 300", "unit": "µM"}]}, {"substance": "meso-tetra[3-(1-methyl-nido-carboranyl)methylphenyl]porphyrin tetrapotassium salt [Compound 10]", "values": [{"measurement": "uptake relative to the corresponding Zn(II) complexes", "setting": "[5]", "result": "approximately four times greater"}, {"measurement": "IC50", "setting": "[6]", "result": "~150", "unit": "µM"}, {"measurement": "IC50", "setting": "Rat gliosarcoma 9L cells", "result": "~150", "unit": "µM"}]}, {"substance": "meso-tetra[4-(1-methyl-nido-arboranyl)methylphenyl]porphyrin tetrapotassium salt [Compound 4]", "values": [{"measurement": "uptake relative to the corresponding Zn(II) complexes", "setting": "[5]", "result": "approximately four times greater"}, {"measurement": "CS50", "setting": "[2]", "result": "> 300", "unit": "µM"}, {"measurement": "IC50", "setting": "[6]", "result": "~150", "unit": "µM"}, {"measurement": "IC50", "setting": "Rat gliosarcoma 9L cells", "result": "~150", "unit": "µM"}, {"measurement": "IC50", "setting": "[7]; 2-hour exposure", "result": "~50", "unit": "µM"}, {"measurement": "IC50", "setting": "[7]; 24-hour exposure", "result": "~1.5", "unit": "µM"}, {"measurement": "maximum tolerated dose", "setting": "[4]", "result": "exceeded 300 mg per kg of body weight"}]}, {"substance": "meso-tetra[4-(nido-carboranyl)phenyl]porphyrin tetrapotassium salt [Compound 16]", "values": [{"measurement": "Form II (nicked) DNA produced in the dark", "setting": "[1]", "result": "little Form II DNA"}, {"measurement": "phosphodiester breaks in supercoiled DNA, light-exposed versus dark", "setting": "[1]", "result": "significantly more effective"}, {"measurement": "activity against HIV-1 in vitro", "setting": "HIV-1", "result": "high levels of activity"}, {"measurement": "CS50", "setting": "[2]", "result": "> 300", "unit": "µM"}, {"measurement": "percentage of viral particles that were still infective following treatment", "setting": "HIV-1 strain IIIB", "result": 4, "unit": "%"}, {"measurement": "DNA damage (Comet tail) after light exposure", "setting": "[3]", "result": "light-activated DNA damage"}, {"measurement": "percentage of viral particles that were still infective following treatment", "setting": "HIV-1 strain 89.6", "result": 0, "unit": "%"}, {"measurement": "maximum tolerated dose", "setting": "[4]", "result": "exceeded 300 mg per kg of body weight"}]}]}
